The term IC50 denotes the point on the concentration scale where inhibition reaches its midpoint. The low end stands for greater potency, the high end for weaker potency.

The record followed here is patent US20240327429A1, “[1,3]Thiazolo[4,5-d]-pyrimidon-7-ones as inhibitors of NOX4” (Boehringer Ingelheim International GmbH, priority 2023, published 2024).

The experiment addresses T1, human NOX3 (hNOX3) (Homo sapiens, UniProt Q9HBY0).
T1 construct: pLV-CMV-hNOX3-puro (NM_015718.3); host or cells: HEK293 (CLS GmbH), lentiviral transduction
T1 sequence (Q9HBY0 1-568): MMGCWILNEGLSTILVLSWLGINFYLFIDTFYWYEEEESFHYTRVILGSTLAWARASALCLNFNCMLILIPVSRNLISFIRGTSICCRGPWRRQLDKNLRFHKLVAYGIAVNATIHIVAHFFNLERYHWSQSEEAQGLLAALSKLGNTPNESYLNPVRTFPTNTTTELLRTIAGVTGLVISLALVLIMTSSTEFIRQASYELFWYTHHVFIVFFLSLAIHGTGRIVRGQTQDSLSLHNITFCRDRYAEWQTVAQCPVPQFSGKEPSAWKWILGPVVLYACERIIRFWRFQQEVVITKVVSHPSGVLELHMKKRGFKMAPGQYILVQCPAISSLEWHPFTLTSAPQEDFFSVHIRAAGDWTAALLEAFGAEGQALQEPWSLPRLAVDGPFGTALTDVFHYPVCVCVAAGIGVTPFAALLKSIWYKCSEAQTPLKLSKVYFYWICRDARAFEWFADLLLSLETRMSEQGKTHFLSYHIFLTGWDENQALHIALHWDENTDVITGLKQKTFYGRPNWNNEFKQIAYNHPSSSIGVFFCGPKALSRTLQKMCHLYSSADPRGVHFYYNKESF
T1 sequence (P13498 2-195 partner limits assumed): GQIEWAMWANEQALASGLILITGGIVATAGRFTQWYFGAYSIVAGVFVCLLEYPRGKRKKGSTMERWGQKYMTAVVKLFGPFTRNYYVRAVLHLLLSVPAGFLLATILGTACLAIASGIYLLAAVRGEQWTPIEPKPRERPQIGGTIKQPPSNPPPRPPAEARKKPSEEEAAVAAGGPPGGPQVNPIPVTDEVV
The experiment in a line: NOX3 inhibition assay (L-012), HEK293 cells stably overexpressing human NOX3. The class given is cell-based. The conditions noted are these: HEK293-hNOX3, PMA stimulated. From the text: Plasmids are Purchased from Vectorbuilder. • for HEK-hNOX1 all necessary subunits are cloned accordingly: • pLV-CMV-hNOX1-puro (NM_007052.5) • pLV-CMV-hNOXO1-blas (NM_172168.3) • pLV-CMV-hp22phox-hygro (NM_000101.4) • pLV-CMV-hNOXA1-neo (NM_006647.2) • for HEK-hNOX3 • pLV-CMV-hNOX3-puro (NM_015718.3)
3rd generation lentiviral particles are produced in HEK293 suspension cells by transient transfection of three helper and expression plasmids. Crucial lentivirus supernatants are harvested, clarified by filtration and concentrated by precipitation. Lentivirus titers are determined in transducing units in (TU/mL) by transduction of HT1080 cells and colony forming assay. Parental HEK293 cells, purchased from CLS GmbH, are transduced with replication-incompetent 3rd generation lentiviral particles (MOI 2) and expanded for at least 2 weeks before cryopreservation of tested lots. During cultivation, medium is changed three times per week and cells are sub-cultured at least once per week. Selection antibiotics are added according to the plasmids (1 μg/ml puromycin, 1.5 μg/ml blasticidin, 200 μg/ml G418 and 100 μg/ml hygromycin).
Evaluation of the NOX4 inhibitors on NOX3 activity is assessed in HEK293 cells stably overexpressing human NOX3 (hNOX3).
Cells are seeded in 384 well plates for 2 days. […] Cells are then stimulated with PMA at 0.1 μM to induce NOX3-dependent ROS production. […] Luminescence is measured with an PHERAstar multimode reader.

On to `Cc1cc(F)ccc1CSc1nc2ncsc2c(=O)n1-c1ccc(O)nn1` [Example 68], for which the IC50 was over 100 µM.

For the molecule `O=c1c2scnc2nc(SCc2c(F)cc(F)cc2F)n1-c1ccc(O)nn1` [Example 67], the half-inhibitory concentration (IC50) is over 100 µM.

As to `O=c1c2scnc2nc(SCc2ccc(C(F)(F)F)cc2F)n1-c1ccc(O)nc1` [Example 26], the IC50 worked out at 62.1 µM. `O=c1c2scnc2nc(SCc2ccc(C(F)(F)F)cc2F)n1-c1cc(F)c(O)c(F)c1` [Example 6] came in with an IC50 of over 100 µM. In turn, `O=c1c2scnc2nc(SCc2ccc(C(F)(F)F)cc2F)n1-c1cnc(O)c(F)c1` [Example 42] showed a half-maximal inhibitory concentration (IC50) of 46.4 µM. In the case of `O=c1c2scnc2nc(SCc2c(F)cc(F)cc2F)n1-c1c(F)cc(O)cc1F` [Example 13], the midpoint of inhibition, the IC50, lay at 16 µM. As for `Cc1cc(Cl)ccc1CSc1nc2ncsc2c(=O)n1-c1cnc(O)nc1` [Example 54], the figure is 49.4 µM.

Molecule `O=c1c2scnc2nc(SCc2c(F)ccc(F)c2F)n1-c1cnc(O)c(F)c1` [Example 45] gave an IC50 of 71.5 µM.

As to `N#Cc1cc(-n2c(SCc3c(F)cc(F)cc3F)nc3ncsc3c2=O)cnc1O` [Example 47, 2-Hydroxy-5-(7-oxo-5-((2,4,6-trifluorobenzyl)thio)thiazolo[4,5-d]pyrimidin-6(7H)-yl)-nicotinonitrile], the IC50 was determined as 18.8 µM. Regarding `O=c1c2scnc2nc(SCc2ccc(Cl)cc2)n1-c1ccc(O)nn1` [Example 64], the IC50 was over 100 µM. As for `O=c1c2scnc2nc(SCc2c(F)cc(F)cc2F)n1-c1ccc(O)cn1` [Example 19], the figure is over 100 µM; as for `O=c1c2scnc2nc(SCc2ccc(C(F)(F)F)cc2)n1-c1cnc(O)c(F)c1` [Example 32, 6-(5-Fluoro-6-hydroxypyridin-3-yl)-5-((4-(trifluoromethyl)benzyl)thio)thiazolo[4,5-d]pyrimidin-7(6H)-one], 38 µM; as for `Cc1cc(F)cc(C)c1CSc1nc2ncsc2c(=O)n1-c1ccc(O)nn1` [Example 63], over 100 µM. For `N#Cc1cc(-n2c(SCc3c(F)cc(F)cc3F)nc3ncsc3c2=O)ccc1O` [Example 18], the IC50 worked out at 0.4 µM. The value for `O=c1c2scnc2nc(SCc2ccc(F)cc2Br)n1-c1cnc(O)c(F)c1` [Example 44] was 73.1 µM; that for `O=c1c2scnc2nc(SCc2ccc(C(F)(F)F)cc2)n1-c1cc(F)c(O)c(F)c1` [Example 7] was over 100 µM. As for `O=c1c2scnc2nc(SCc2c(F)cc(F)cc2F)n1-c1ccc(O)cc1` [Example 15], the figure is over 100 µM; as for `O=c1c2scnc2nc(SCc2ccc(Cl)cc2F)n1-c1cc(F)c(O)c(F)c1` [Example 2, 5-((4-Chloro-2-fluorobenzyl)thio)-6-(3,5-difluoro-4-hydroxyphenyl)thiazolo[4,5-d]-pyrimidin-7(6H)-one], 4.1 µM; as for `O=c1c2scnc2nc(SCc2c(F)cc(F)cc2Cl)n1-c1cnc(O)c(F)c1` [Example 41], 32.3 µM. As for `O=c1c2scnc2nc(SCc2ccc(Cl)cc2F)n1-c1ccc(O)nc1` [Example 22, 5-((4-Chloro-2-fluorobenzyl)thio)-6-(6-hydroxypyridin-3-yl)thiazolo[4,5-d]pyrimidin-7(6H)-one], the figure is over 100 µM; as for `Cc1cc(F)cc(C)c1CSc1nc2ncsc2c(=O)n1-c1cnc(O)nc1` [Example 55], over 100 µM.

Take `Cc1cc(F)cc(C)c1CSc1nc2ncsc2c(=O)n1-c1cc(F)c(O)c(F)c1` [Example 4]: inhibition was half-maximal at 4.1 µM (IC50). As for `O=c1c2scnc2nc(SCc2c(F)cc(F)cc2F)n1-c1cc(F)c(O)cn1` [Example 20], the figure is 8.1 µM; as for `O=c1c2scnc2nc(SCc2ccc(C(F)(F)F)cc2)n1-c1ccc(O)nc1` [Example 27], 86.8 µM. As for `O=c1c2scnc2nc(SCc2ccc(Cl)cc2)n1-c1ccc(O)nc1` [Example 25], the figure is over 100 µM; as for `O=c1c2scnc2nc(SCc2c(F)cc(F)cc2F)n1-c1cc(F)c(O)c(F)c1` [Example 8], 2.7 µM; as for `O=c1c2scnc2nc(SCc2c(F)cc(F)cc2F)n1-c1ccc(O)c(Cl)c1` [Example 16], 59.1 µM. The value for `Cc1cc(F)ccc1CSc1nc2ncsc2c(=O)n1-c1ccc(O)nc1` [Example 29] was over 100 µM; that for `O=c1c2scnc2nc(SCc2ccc(C(F)(F)F)cc2F)n1-c1cnc(O)nc1` [Example 57] was over 100 µM. `O=c1c2scnc2nc(SCc2c(F)cc(F)cc2F)n1-c1ncc(O)cn1` [Example 21, 6-(5-Hydroxypyrimidin-2-yl)-5-((2,4,6-trifluorobenzyl)thio)thiazolo[4,5-d]pyrimidin-7(6H)-one] came in with a 50% inhibitory concentration (IC50) of over 100 µM. The value for `O=c1c2scnc2nc(SCc2c(F)cc(F)cc2F)n1-c1ccc(O)cc1Cl` [Example 17] was 61.4 µM. As for `O=c1c2scnc2nc(SCc2c(F)cc(F)cc2F)n1-c1cc(F)c(O)nc1F` [Example 51, 6-(2,5-Difluoro-6-hydroxypyridin-3-yl)-5-((2,4,6-trifluorobenzyl)thio)thiazolo[4,5-d]-pyrimidin-7(6H)-one], the 50% inhibitory concentration (IC50) amounted to 6.4 µM. As for `O=c1c2scnc2nc(SCc2ccc(Cl)cc2)n1-c1cnc(O)nc1` [Example 56], the figure is over 100 µM.

With `Cc1cc(F)cc(C)c1CSc1nc2ncsc2c(=O)n1-c1ccc(O)nc1` [Example 24], the IC50 was over 100 µM.

For the molecule `O=c1c2scnc2nc(SCc2ccc(C(F)(F)F)cc2F)n1-c1ccc(O)nn1` [Example 65], the half-inhibitory concentration (IC50) was 83.4 µM. The value for `O=c1c2scnc2nc(SCc2c(F)cc(F)cc2F)n1-c1ccc(O)cc1F` [Example 14] was 25.5 µM. As for `O=c1c2scnc2nc(SCc2c(F)cc(F)cc2F)n1-c1ccc(O)c(F)c1` [Example 11], the figure is 16.3 µM; as for `O=c1c2scnc2nc(SCc2c(F)cc(F)cc2F)n1-c1ccc(O)nc1F` [Example 50, 6-(2-Fluoro-6-hydroxypyridin-3-yl)-5-((2,4,6-trifluorobenzyl)thio)thiazolo[4,5-d]-pyrimidin-7(6H)-one], 64.7 µM; as for `Cc1cc(Cl)ccc1CSc1nc2ncsc2c(=O)n1-c1cnc(O)c(F)c1` [Example 37], 70.4 µM. As for `O=c1c2scnc2nc(SCc2ccc(Br)cc2F)n1-c1cnc(O)c(F)c1` [Example 34], the figure is 63.6 µM; as for `O=c1c2scnc2nc(SCc2c(F)cc(F)cc2F)n1-c1ccc(O)nc1` [Example 28], over 100 µM. Turning to `O=c1c2scnc2nc(SCc2ccc(Cl)cc2F)n1-c1ccc(O)nn1` [Example 61, 5-((4-Chloro-2-fluorobenzyl)thio)-6-(6-hydroxypyridazin-3-yl)thiazolo[4,5-d]pyrimidin-7(6H)-one], it took 28.2 µM to reach half-maximal inhibition (IC50). The value for `O=c1c2scnc2nc(SCc2ccc(Cl)cc2)n1-c1cnc(O)c(F)c1` [Example 33] was over 100 µM. As for `O=c1c2scnc2nc(SCc2ccc(Cl)cc2F)n1-c1cnc(O)nc1` [Example 53, 5-((4-Chloro-2-fluorobenzyl)thio)-6-(2-hydroxypyrimidin-5-yl)thiazolo[4,5-d]pyrimidin-7(6H)-one], the figure is over 100 µM; as for `O=c1c2scnc2nc(SCc2ccc(Cl)cc2Cl)n1-c1cnc(O)c(F)c1` [Example 39], 56.2 µM; as for `O=c1c2scnc2nc(SCc2c(F)cc(F)cc2F)n1-c1cnc(O)c(F)c1F` [Example 52, 6-(4,5-Difluoro-6-hydroxypyridin-3-yl)-5-((2,4,6-trifluorobenzyl)thio)thiazolo[4,5-d]-pyrimidin-7(6H)-one], 15.5 µM. `O=c1c2scnc2nc(SCc2c(F)cc(F)cc2F)n1-c1cc(F)c(O)cc1F` [Example 10, 6-(2,5-Difluoro-4-hydroxyphenyl)-5-((2,4,6-trifluorobenzyl)thio)thiazolo[4,5-d]pyrimidin-7(6H)-one] displayed a concentration for half-maximal inhibition (IC50) of 4 µM.

The molecule `Cc1cc(Cl)ccc1CSc1nc2ncsc2c(=O)n1-c1ccc(O)nn1` [Example 62] returned an IC50 of over 100 µM.
